How the values were obtained:
[1] = Effect of albendazole on cell viability, MTT assay; type: cell-based; conditions: after 96 h
Description: After this analysis, the effect on viability of albendazole on both HaCat (human skin keratinocyte) and Vero (monkey kidney epithelial cell) cells was evaluated by MTT assay. Firstly, the mammalian cells (5 × 10^4/well) were allowed to adhere in 96-well tissue culture plates for 4 h at 37 °C in a 5% CO2 atmosphere. Non-adherent cells were removed by washes with sterile DMEM and the wells refilled with DMEM medium supplemented with 10% FBS. The cells were then incubated with increasing concentrations of albendazole (15.62 to 750 µM) and incubated for additional 24 h and 96 h at 37 °C in a 5% CO2 atmosphere. Subsequently, the culture medium was discharged, and the formation of formazan was measured by adding MTT (5 mg/mL in PBS, 25 µg/well) and incubating the wells for 3 h in the dark at 37 °C. Wells with cells receiving only the culture medium with or without 1% DMSO were also included as positive cellular growth controls. The plates were subsequently centrifuged at 500× g for 8 min, the supernatant was removed, the pellet was dissolved in 200 µL of DMSO, and the absorbance measured in an ELISA reader at 570 nm (SpectraMax Gemini 190, Molecular Devices, CA, USA). The 50% cytotoxicity inhibitory concentration (CC50) was determined by non-linear regression analysis.

[2] = system: Exophiala heteromorpha (ATCC 28180); conditions: E. heteromorpha; PDA; 7 days, 37 °C; albendazole at ½ MIC
Description: (§2) At the end of the seven days of incubation at 37 °C, the plates were read visually. The aspect of the colonies supplemented with albendazole were compared to those of the positive melanin and inhibition melanin controls, to determine whether the color of the albendazole-supplemented cultures resembled the positive DHN-melanin or the melanin inhibition control. Pictures of the colonies were captured using a Canon EOS Rebel T7+ digital camera.

[3] = system: Fonsecaea pedrosoi (CFP 00791); conditions: F. pedrosoi; PDA; 7 days, 37 °C; albendazole at ½ MIC
Description: as §2

[4] = system: Fonsecaea pedrosoi (CFP 00791); assay: NIH Clinical Collection screening for antifungal activity (growth inhibition, OD 530 nm); type: cell-based; conditions: Fonsecaea pedrosoi, read-out: % Growth Inhibition
Description: These substances are part of the NIH Roadmap Molecular Libraries Screening Centers Network screening library, a collection of chemically diverse substances in Phase I-III clinical trials. Each substance was initially diluted to 1 mM in DMSO and stored at −20 °C until use. […] The final DMSO concentration corresponded to 0.5% v/v. The inoculum was prepared according to the protocol for filamentous fungi proposed by the European Committee on Antimicrobial Susceptibility Testing—EUCAST, with minor modifications. […] After growth, conidia were suspended in 3 mL of sterile distilled water with 0.1% Tween 20, vortexed, and the concentration adjusted to the 0.5 McFarland scale. The suspension was then diluted 1:10 in order to obtain a final working inoculum at 2–5 × 10^5 CFU/mL. Next, 100 µL of the inoculum was added to each well and the plates incubated at 35 °C for 72–96 h. Negative and positive controls consisted of culture medium alone and drug-free culture medium with the fungal inoculum previously described, respectively. Plates were read using a microplate reader (Epoch, Biotek, Wenusky, VT, USA) with a 530 nm filter to obtain the optical density. All plates were also visually read to confirm the equipment data. A calculation was performed to obtain the percentage of inhibition of fungal growth, according to the formula: (1 − (OD1/OD2)) × 100, where OD1 = optical density of the fungus in the presence of the drug; and OD2 = optical density of the growth control drug-free well.

[5] = system: Fonsecaea pedrosoi (CFP 00791); assay: Urease production in Christensen urea broth (OD 559 nm); type: cell-based; conditions: F. pedrosoi; ½ MIC albendazole; 7 and 12 days, 37 °C
Description: (§1) To verify urease production, three strains: Fonsecaea pedrosoi (CFP 00791) Cladophialophora carrionii (CFP 00910), and Exophiala heteromorpha (ATCC® 28180), corresponding to the three major chromoblastomycosis agents worldwide, were cultured on PDA for seven days and further cultured in Christensen urea broth in the presence and absence of albendazole at a ½ MIC concentration. Candida albicans and Cryptococcus neoformans were used as negative and positive controls of the culture medium, respectively. In brief, fungal suspensions were adjusted to a concentration of 10^6 cells/mL and used for inoculation. A volume of 500 μL of these suspensions were inoculated into 4.5 mL of Christensen urea broth and the tubes were then incubated under agitation (150 rpm) at 37 °C. At the end of seven and 12 days of incubation, the tubes were centrifuged, and a volume of 100 μL of the supernatant was transferred to a 96-well plate; this procedure was performed in triplicate. The absorbances of the samples were read on a SpectraMax plus 384 spectrophotometer (Molecular Devices, San José, CA, USA) at 559 nm, as previously described by Almeida-Paes et al.. Results were analyzed statistically using the two-way ANOVA test with multiple comparisons. p values lower than 0.05 were considered significant.

[6] = system: Cladophialophora carrionii (CFP 00910); assay: as above; type: cell-based; conditions: C. carrionii; ½ MIC albendazole; 7 and 12 days, 37 °C
Description: as §1

[7] = system: Exophiala heteromorpha (ATCC 28180); assay: as above; type: cell-based; conditions: E. heteromorpha; ½ MIC albendazole; 7 and 12 days, 37 °C
Description: as §1

[8] = system: Cladophialophora carrionii (CFP 00910); conditions: C. carrionii; PDA; 7 days, 37 °C; albendazole at ½ MIC
Description: as §2

## CCCSc1ccc2nc(NC(=O)OC)[nH]c2c1 [Albendazole]
[1]; human, HaCat keratinocyte cells
  CC50 at 96 h: 85.1 µM
[1]; monkey, Vero kidney epithelial cells
  CC50 at 96 h: 262 µM
[2]
  melanin production: did not observe a decrease in melanin production
[3]
  melanin production: did not observe a decrease in melanin production
[4]
  inhibition at 10 µM: 98%
[5]
  urease secretion: increased secretion of urease
[6]
  urease secretion: decrease in urease secretion
[7]
  urease secretion: decrease in urease secretion
[8]
  melanin production: did not observe a decrease in melanin production

From article PMC10381309 (Journal of Fungi, 2023)
